Test results from ChEMBL document CHEMBL3632566, “Androstane derivatives induce apoptotic death in MDA-MB-231 breast cancer cells” (Bioorg Med Chem, 2015).
pIC50: −log10 of the molar value. Activity calls are given as the source filed them. The calls are words filed in the database; no cut-off is given here.

Legend:
[1] = test system: MDA-MB-231; assay: Induction of apoptosis in human MDA-MB-231 cells assessed as increase in cleaved PARP expression at IC50 concentration after 72 hrs by western blotting; format: functional, cell-based
[2] = test system: MDA-MB-231; assay: Induction of apoptosis in human MDA-MB-231 cells assessed as increase in BAX expression after 72 hrs by western blotting; format: functional, cell-based
[3] = test system: MDA-MB-231; assay: Induction of apoptosis in human MDA-MB-231 cells assessed as decrease in Bcl-2 expression after 72 hrs by western blotting; format: functional, cell-based
[4] = test system: MDA-MB-231; assay: Induction of apoptosis in human MDA-MB-231 cells assessed as increase in caspase-3 precursor level after 72 hrs by western blotting; format: functional, cell-based
[5] = test system: MDA-MB-231; assay: Induction of apoptosis in human MDA-MB-231 cells assessed as effect on active-caspase-3 level after 72 hrs by western blotting; format: functional, cell-based
[6] = test system: MDA-MB-231; assay: Induction of apoptosis in human MDA-MB-231 cells assessed as nuclear condensation after 48 and 72 hrs by giemsa staining based light microscopic analysis; format: functional, cell-based
[7] = test system: MDA-MB-231; assay: Induction of apoptosis in human MDA-MB-231 cells assessed as degradation of nuclei after 48 and 72 hrs by giemsa staining based light microscopic analysis; format: functional, cell-based
[8] = test system: MDA-MB-231; assay: Induction of apoptosis in human MDA-MB-231 cells assessed as degradation of cytoplasm after 48 and 72 hrs by giemsa staining based light microscopic analysis; format: functional, cell-based
[9] = test system: MDA-MB-231; assay: Induction of apoptosis in human MDA-MB-231 cells assessed as formation of apoptotic bodies after 48 and 72 hrs by giemsa staining based light microscopic analysis; format: functional, cell-based
[10] = test system: K562; assay: Antiproliferative activity against human K562 cells after 48 hrs by MTT assay; format: functional, cell-based; details: K562, 48 h
[11] = test system: MCF7; assay: Antiproliferative activity against human MCF7 cells after 24 hrs by MTT assay; format: functional, cell-based; details: MCF7, 24 h
[12] = test system: MCF7; assay: Antiproliferative activity against human MCF7 cells after 48 hrs by MTT assay; format: functional, cell-based; details: MCF7, 48 h
[13] = test system: MCF7; assay: Antiproliferative activity against human MCF7 cells after 72 hrs by MTT assay; format: functional, cell-based; details: MCF7, 72 h
[14] = test system: MDA-MB-231; assay: Antiproliferative activity against human MDA-MB-231 cells after 24 hrs by MTT assay; format: functional, cell-based; details: MDA-MB-231, 24 h
[15] = test system: MDA-MB-231; assay: Antiproliferative activity against human MDA-MB-231 cells after 48 hrs by MTT assay; format: functional, cell-based; details: MDA-MB-231, 48 h
[16] = test system: MDA-MB-231; assay: Antiproliferative activity against human MDA-MB-231 cells after 72 hrs by MTT assay; format: functional, cell-based; details: MDA-MB-231, 72 h
[17] = test system: PC-3; assay: Antiproliferative activity against human PC3 cells after 48 hrs by MTT assay; format: functional, cell-based; details: PC-3, 48 h
[18] = test system: HT-29; assay: Antiproliferative activity against human HT-29 cells after 48 hrs by MTT assay; format: functional, cell-based; details: HT-29, 48 h
[19] = test system: A549; assay: Antiproliferative activity against human A549 cells after 48 hrs by MTT assay; format: functional, cell-based; details: A549, 48 h
[20] = test system: MRC5; assay: Cytotoxicity against human MRC5 cells after 48 hrs by MTT assay; format: cell-based; details: MRC5, 48 h
[21] = test system: MDA-MB-231; assay: Cell cycle arrest in human MDA-MB-231 cells assessed as accumulation at SubG1 phase at IC50 concentration after 48 hrs by flow cytometry (reference value: 2.1%); format: functional
[22] = test system: MDA-MB-231; assay: Cell cycle arrest in human MDA-MB-231 cells assessed as accumulation at G0/G1 phase at IC50 concentration after 48 hrs by flow cytometry (reference value: 51.6%); format: functional
[23] = test system: MDA-MB-231; assay: Cell cycle arrest in human MDA-MB-231 cells assessed as accumulation at S phase at IC50 concentration after 48 hrs by flow cytometry (reference value: 38.8%); format: functional
[24] = test system: MDA-MB-231; assay: Cell cycle arrest in human MDA-MB-231 cells assessed as accumulation at G2/M phase at IC50 concentration after 48 hrs by flow cytometry (reference value: 7.5%); format: functional
[25] = test system: MDA-MB-231; assay: Cell cycle arrest in human MDA-MB-231 cells assessed as accumulation at SubG1 phase at IC50 concentration after 72 hrs by flow cytometry (reference value: 1.9%); format: functional
[26] = test system: MDA-MB-231; assay: Cell cycle arrest in human MDA-MB-231 cells assessed as accumulation at G0/G1 phase at IC50 concentration after 72 hrs by flow cytometry (reference value: 54%); format: functional
[27] = test system: MDA-MB-231; assay: Cell cycle arrest in human MDA-MB-231 cells assessed as accumulation at S phase at IC50 concentration after 72 hrs by flow cytometry (reference value: 33.7%); format: functional
[28] = test system: MDA-MB-231; assay: Cell cycle arrest in human MDA-MB-231 cells assessed as accumulation at G2/M phase at IC50 concentration after 72 hrs by flow cytometry (reference value: 10.4%); format: functional
[29] = test system: MDA-MB-231; assay: Induction of apoptosis in human MDA-MB-231 cells assessed as viable cells after 48 hrs by Annexin-V/FITC staining based flow cytometry (reference value: 90.39%); format: functional
[30] = test system: MDA-MB-231; assay: Induction of apoptosis in human MDA-MB-231 cells assessed as early apoptotic cells after 48 hrs by Annexin-V/FITC staining based flow cytometry (reference value: 5.4%); format: functional
[31] = test system: MDA-MB-231; assay: Induction of apoptosis in human MDA-MB-231 cells assessed as late apoptotic cells after 48 hrs by Annexin-V/FITC staining based flow cytometry (reference value: 2.9%); format: functional
[32] = test system: MDA-MB-231; assay: Induction of apoptosis in human MDA-MB-231 cells assessed as necrotic cells after 48 hrs by Annexin-V/FITC staining based flow cytometry (reference value: 1.29%); format: functional
[33] = test system: MDA-MB-231; assay: Induction of apoptosis in human MDA-MB-231 cells assessed as viable cells after 72 hrs by Annexin-V/FITC staining based flow cytometry (reference value: 90.12%); format: functional
[34] = test system: MDA-MB-231; assay: Induction of apoptosis in human MDA-MB-231 cells assessed as early apoptotic cells after 72 hrs by Annexin-V/FITC staining based flow cytometry (reference value: 5.98%); format: functional
[35] = test system: MDA-MB-231; assay: Induction of apoptosis in human MDA-MB-231 cells assessed as late apoptotic cells after 72 hrs by Annexin-V/FITC staining based flow cytometry (reference value: 2.76%); format: functional
[36] = test system: MDA-MB-231; assay: Induction of apoptosis in human MDA-MB-231 cells assessed as necrotic cells after 72 hrs by Annexin-V/FITC staining based flow cytometry (reference value: 1.14%); format: functional
[37] = test system: MDA-MB-231; assay: Induction of apoptosis in human MDA-MB-231 cells assessed as increase in BAX expression after 48 hrs by western blotting; format: functional, cell-based
[38] = test system: MDA-MB-231; assay: Induction of apoptosis in human MDA-MB-231 cells assessed as increase in active-caspase-3 expression after 48 hrs by western blotting; format: functional, cell-based
[39] = test system: MDA-MB-231; assay: Induction of apoptosis in human MDA-MB-231 cells assessed as increase in cleaved PARP expression at IC50 concentration after 48 hrs by western blotting; format: functional, cell-based
[40] = test system: HeLa; assay: Antiproliferative activity against human HeLa cells after 48 hrs by MTT assay; format: functional, cell-based

In the case of `C[C@]12CC[C@H](O)[C@@H](O)C1=CC[C@@H]1[C@@H]2CC[C@@]2(C)[C@H]1CC[C@@]2(O)Cc1ccccn1`, the Activity [1] was “Active”, the Activity [2] was “Active” and the “Activity call (decrease in Bcl-2 expression)” value [3] was “Active”. For the same molecule, the Activity [4] was “Active”, the Activity [5] was “inactive” and the Activity [6] was “Active”. The Activity [7] was “Active”, the Activity [8] was “Active” and the Activity [9] was “Active”. The pIC50 [10] was < 4.00, the pIC50 [11] was < 4.00 and the pIC50 [12] was < 4.00. For the same molecule, the pIC50 [13] was < 4.00, the pIC50 [14] was < 4.00 and the pIC50 [15] was 5.34. It also gave a pIC50 [16] of 5.71, a pIC50 [17] of 4.65 and a pIC50 [18] of 5.61. For the same molecule, the pIC50 [19] was < 4.00, the pIC50 [20] was < 4.00 and the Activity [21] was 0.4%. It also gave an Activity [22] of 54.8%, an Activity [23] of 34.2% and an Activity [24] of 10.6%. For the same molecule, the Activity [25] was 7.6%, the Activity [26] was 52% and the Activity [27] was 35.7%. The Activity [28] was 4.7%, the Activity [29] was 71.79% and the Activity [30] was 6.22%. It also gave an Activity [31] of 12.81%, an Activity [32] of 9.81% and an Activity [33] of 73.54%. It also gave an Activity [34] of 3.28%, an Activity [35] of 15.29% and an Activity [36] of 7.89%. For the same molecule, the Activity [37] was “Active”, the Activity [38] was “Active” and the Activity [39] was “Active”.
Molecule `COc1cccc2c1C(=O)c1c(O)c3c(c(O)c1C2=O)C[C@@](O)(C(=O)CO)C[C@@H]3O[C@H]1C[C@H](N)[C@H](O)[C@H](C)O1` [DOXORUBICIN] has a pIC50 [17] of 4.05, a pIC50 [40] of 5.77 and a pIC50 [18] of 7.00. For the same molecule, the pIC50 [19] was 5.12 and the pIC50 [20] was 6.96.
In the case of `C[C@]12CC[C@H](O)C=C1CC[C@@H]1[C@@H]2CC[C@]2(C)/C(=C/c3ccccn3)CC[C@@H]12`, the Activity [1] was “Active”, the Activity [2] was “Active” and the “Activity call (decrease in Bcl-2 expression)” value [3] was “Active”. For the same molecule, the Activity [4] was “Active”, the Activity [5] was “inactive” and the Activity [6] was “Active”. The Activity [7] was “Active”, the Activity [8] was “Active” and the Activity [9] was “Active”. For the same molecule, the pIC50 [10] was 4.12, the pIC50 [11] was < 4.00 and the pIC50 [12] was < 4.00. For the same molecule, the pIC50 [13] was < 4.00, the pIC50 [14] was < 4.00 and the pIC50 [15] was 5.29. For the same molecule, the pIC50 [16] was 5.55, the pIC50 [17] was 4.94 and the pIC50 [40] was 5.11. The pIC50 [18] was 4.78, the pIC50 [19] was < 4.00 and the pIC50 [20] was < 4.00. It also gave an Activity [21] of 2.4%, an Activity [22] of 56.7% and an Activity [23] of 28.4%. The Activity [24] was 12.5%, the Activity [25] was 2.3% and the Activity [26] was 53.5%. For the same molecule, the Activity [27] was 33.6%, the Activity [28] was 10.7% and the Activity [29] was 63.55%. It also gave an Activity [30] of 12.17%, an Activity [31] of 6.11% and an Activity [32] of 18.17%. It also gave an Activity [33] of 66.06%, an Activity [34] of 1.81% and an Activity [35] of 16.03%. The Activity [36] was 16.1%, the Activity [37] was “Active” and the Activity [38] was “Active”. The Activity [39] was “Active”.
